ChEMBL document CHEMBL1143344, “Novel DNA-directed alkylating agents: design, synthesis and potent antitumor effect of phenyl N-mustard-9-anilinoacridine conjugates via a carbamate or carbonate linker” (Bioorg Med Chem, 2009)
Active and inactive are the calls of the source. No cut-off for these calls is given here.

How the values were obtained:
CCRF-CEM [1] = test: Ratio of IC50 for vinblastine-resistant human CCRF-CEM cells to IC50 for human CCRF-CEM cells; format: functional
CCRF-CEM [2] = test: Cytotoxicity against vinblastine-resistant human CCRF-CEM cells after 72 hrs by XTT assay; format: functional, cell-based
HCT-116 [3] = test: Cytotoxicity against human HCT116 cells after 72 hrs by SRB assay; format: functional, cell-based; conditions: HCT-116, 72 h
CCRF-CEM [4] = test: Cytotoxicity against human CCRF-CEM cells after 72 hrs by XTT assay; format: functional, cell-based
MX1 [5] = test: Cytotoxicity against human MX1 cells after 72 hrs by SRB assay; format: functional, cell-based; conditions: MX1, 72 h
CCRF-CEM [6] = test: Cytotoxicity against taxol-resistant human CCRF-CEM cells after 72 hrs by XTT assay; format: functional, cell-based
CCRF-CEM [7] = test: Ratio of IC50 for taxol-resistant human CCRF-CEM cells to IC50 for human CCRF-CEM cells; format: functional
MX1 [8] = test: Antitumor activity against human MX1 cells xenografted in athymic nude mouse assessed as no tumor relapse at 100 mg/kg, iv administered qd for 6 days measured after 59 days; format: functional, organism-based; design: dose 100 mg/kg
MX1 [9] = test: Antitumor activity against human MX1 cells xenografted in athymic nude mouse assessed as total tumor remission at 100 mg/kg, iv administered qd for 6 days measured after 20 days; format: functional, organism-based; design: dose 100 mg/kg
MX1 [10] = test: Antitumor activity against human MX1 cells xenografted in athymic nude mouse assessed as total tumor remission at 100 mg/kg, iv administered qd for 6 days measured after 22 days; format: functional, organism-based; design: dose 100 mg/kg
[11] = Cytotoxicity against human CL1-5 cells after 72 hrs by WST1 assay; format: functional, cell-based; conditions: CL1-5, 72 h
MCF7 = test: Cytotoxicity against human MCF7 cells after 72 hrs by WST1 assay; format: functional, cell-based; conditions: MCF7, 72 h
MX1 [12] = test: Antitumor activity against human MX1 cells xenografted in athymic nude mouse assessed as total tumor remission at 40 mg/kg, iv administered q2d for 5 days measured after 20 days; format: functional, organism-based; design: dose 40 mg/kg
[13] = Cytotoxicity against human CL1-0 cells after 72 hrs by WST1 assay; format: functional, cell-based; conditions: CL1-0, 72 h
[14] = Cytotoxicity against human H1299 cells after 72 hrs by WST1 assay; format: functional, cell-based; conditions: NCI-H1299, 72 h
PC-3 = test: Cytotoxicity against human PC3 cells after 72 hrs by WST1 assay; format: functional, cell-based; conditions: PC-3, 72 h
MX1 [15] = test: Antitumor activity against human MX1 cells xenografted in athymic nude mouse assessed as total tumor remission at 10 mg/kg, iv administered q2d for 3 days measured after 16 days; format: functional, organism-based; design: dose 10 mg/kg
MX1 [16] = test: Antitumor activity against human MX1 cells xenografted in athymic nude mouse assessed as total tumor remission at 10 mg/kg, iv administered q2d for 3 days measured after 20 days; format: functional, organism-based; design: dose 10 mg/kg
MX1 [17] = test: Antitumor activity against human MX1 cells xenografted in athymic nude mouse assessed as total tumor remission at 10 mg/kg, iv administered q2d for 3 days measured after 18 days; format: functional, organism-based; design: dose 10 mg/kg
Mus musculus = test: Toxicity in athymic nude mouse xenografted with human HCT116 cells assessed as body weight loss at 50 mg/kg, iv administered q2d for 7 days; format: organism-based, HCT-116; design: dose 50 mg/kg, route intravenous; conditions: in vivo, 168 h
MX1 [18] = test: Antitumor activity against human MX1 cells xenografted in athymic nude mouse assessed as total tumor remission at 50 mg/kg, iv administered q2d for 9 days measured after 35 days; format: functional, organism-based; design: dose 50 mg/kg
MX1 [19] = test: Antitumor activity against human MX1 cells xenografted in athymic nude mouse assessed as total tumor remission at 50 mg/kg, iv administered q2d for 9 days measured after 33 days; format: functional, organism-based; design: dose 50 mg/kg
MX1 [20] = test: Antitumor activity against human MX1 cells xenografted in athymic nude mouse assessed as total tumor remission at 50 mg/kg, iv administered q2d for 9 days measured after 31 days; format: functional, organism-based; design: dose 50 mg/kg
HCT-116 [21] = test: Antitumor activity against human HCT116 cells xenografted in athymic nude mouse assessed as tumor growth inhibition at 50 mg/kg, iv administered q2d for 7 days; format: functional; design: scale not given: the % may be the effect or the level left
MX1 [22] = test: Antitumor activity against human MX1 cells xenografted in athymic nude mouse assessed as total tumor remission at 50 mg/kg, iv administered q2d for 9 days measured after 29 days; format: functional, organism-based; design: dose 50 mg/kg

Row | SMILES | Ratio IC50 (CCRF-CEM [1]) | IC50 (CCRF-CEM [2]) | IC50 (HCT-116 [3]) | IC50 (CCRF-CEM [4]; read-out: IC50) | IC50 (MX1 [5]) | IC50 (CCRF-CEM [6]) | Ratio IC50 (CCRF-CEM [7]) | also measured
1 | Cc1cccc2c(Nc3cc(COC(=O)Nc4ccc(N(CCCl)CCCl)cc4)cc(NC(=O)OC(C)(C)C)c3)c3ccccc3nc12 | 1.9 | 1420 nM | 2400 nM | 750 nM | 5930 nM | 3360 nM | 4.5 | 
2 | OCc1cc(Nc2c3ccccc3nc3ccccc23)cc(OCCN(CCCl)CCCl)c1 | 4.9 | 34 nM |  |  | 3.5 nM | 7.5 nM | 1.1 | 
3 | CC[C@]1(O)C[C@@H]2CN(CCc3c([nH]c4ccccc34)[C@@](C(=O)OC)(c3cc4c(cc3OC)N(C)[C@H]3[C@@](O)(C(=O)OC)[C@H](OC(C)=O)[C@]5(CC)C=CCN6CC[C@]43[C@@H]65)C2)C1 [VINBLASTINE] | 679.5 | 496 nM | 1.1 nM | 0.73 nM | 2.2 nM | 78 nM | 106.2 | 
4 | COc1cc(NC(=O)Oc2ccc(N(CCCl)CCCl)cc2)cc(Nc2c3ccccc3nc3ccccc23)c1 | 0.54 | 108 nM | 1710 nM | 200 nM | 340 nM | 309 nM | 1.5 | Activity (MX1 [8]): Active; Activity (MX1 [9]): Active; Activity (MX1 [10]): Active
5 | COc1ccc(Nc2c3ccccc3nc3ccccc23)cc1NC(=O)Oc1ccc(N(CCCl)CCCl)cc1 | 1.4 | 119 nM | 186 nM | 85 nM | 181 nM | 160 nM | 1.9 | 
6 | Cc1ccc(Nc2c3ccccc3nc3ccccc23)cc1NC(=O)Oc1ccc(N(CCCl)CCCl)cc1 | 2.1 | 158 nM | 434 nM | 76 nM | 214 nM | 216 nM | 2.8 | 
7 | COc1ccc(NC(=O)Oc2ccc(N(CCCl)CCCl)cc2)cc1Nc1c2ccccc2nc2c(C)cccc12 | 0.54 | 110 nM | 841 nM | 205 nM | 338 nM | 210 nM | 1 | 
8 | CC(=O)O[C@H]1C(=O)[C@@]2(C)[C@H]([C@H](OC(=O)c3ccccc3)[C@]3(O)C[C@H](OC(=O)[C@H](O)[C@@H](NC(=O)c4ccccc4)c4ccccc4)C(C)=C1C3(C)C)[C@]1(OC(C)=O)CO[C@@H]1C[C@@H]2O [PACLITAXEL] | 980 | 1270 nM | 1.1 nM |  | 46 nM | 429 nM | 330 | IC50 (CCRF-CEM [4]): 3.1 nM
9 | Cc1cccc2c(Nc3cc(CO)cc(NC(=O)Oc4ccc(N(CCCl)CCCl)cc4)c3)c3ccccc3nc12 | 1.9 | 127 nM | 438 nM | 67 nM | 84 nM | 97 nM | 1.4 | IC50 [11]: 12600 nM; IC50 (MCF7): 9010 nM; Activity (MX1 [12]): Active; IC50 [13]: 1870 nM; IC50 [14]: 457 nM; IC50 (PC-3): 5980 nM
10 | Cc1c(NC(=O)Oc2ccc(N(CCCl)CCCl)cc2)cccc1Nc1c2ccccc2nc2c(C)cccc12 | 0.89 | 142 nM | 320 nM | 160 nM | 181 nM | 174 nM | 1.09 | 
11 | COc1ccc(NC(=O)Oc2ccc(N(CCCl)CCCl)cc2)cc1Nc1c2ccccc2nc2ccccc12 |  | 254 nM | 709 nM | 541 nM | 1560 nM | 583 nM | 1.08 | 
12 | CCOC(=O)Nc1cc(COC(=O)Nc2ccc(N(CCCl)CCCl)cc2)cc(Nc2c3ccccc3nc3ccccc23)c1 |  |  |  | 85 nM | 597 nM |  |  | 
13 | Nc1cc(CO)cc(Nc2c3ccccc3nc3ccccc23)c1 | 2.7 | 1600 nM |  |  | 3.5 nM | 600 nM | 0.8 | 
14 | Cc1ccc(NC(=O)Oc2ccc(N(CCCl)CCCl)cc2)cc1Nc1c2ccccc2nc2c(C)cccc12 | 0.7 | 93 nM | 263 nM | 132 nM | 163 nM | 138 nM | 1.05 | IC50 [11]: 10600 nM; IC50 (MCF7): 5710 nM; IC50 [13]: 4660 nM; IC50 [14]: 623 nM; IC50 (PC-3): 4470 nM
15 | COc1ccc(Nc2c3ccccc3nc3c(C)cccc23)cc1NC(=O)Oc1ccc(N(CCCl)CCCl)cc1 | 7.9 | 190 nM | 238 nM | 24 nM | 138 nM | 27 nM | 1.1 | IC50 [11]: 8850 nM; IC50 (MCF7): 3430 nM; IC50 [13]: 2250 nM; IC50 [14]: 357 nM; IC50 (PC-3): 1580 nM
16 | CCOC(=O)Nc1cc(COC(=O)Oc2ccc(N(CCCl)CCCl)cc2)cc(Nc2c3ccccc3nc3ccccc23)c1 | 1.5 | 482 nM | 639 nM | 315 nM | 89 nM | 509 nM | 1.6 | Activity (MX1 [15]): Active; IC50 [11]: 4560 nM; IC50 (MCF7): 19800 nM; Activity (MX1 [16]): Active; IC50 [13]: 410 nM; Activity (MX1 [17]): Active; IC50 [14]: 527 nM; IC50 (PC-3): 23300 nM
17 | CC(C)OC(=O)Nc1cc(COC(=O)Nc2ccc(N(CCCl)CCCl)cc2)cc(Nc2c3ccccc3nc3ccccc23)c1 | 4 | 753 nM | 301 nM | 189 nM | 1130 nM | 648 nM | 3.4 | IC50 [11]: 6630 nM; IC50 (MCF7): 7010 nM; IC50 [13]: 4000 nM; IC50 [14]: 9170 nM; IC50 (PC-3): 16000 nM
18 | Cc1ccc(Nc2c3ccccc3nc3c(C)cccc23)cc1NC(=O)Oc1ccc(N(CCCl)CCCl)cc1 | 1.2 | 157 nM | 607 nM | 132 nM | 286 nM | 169 nM | 1.3 | Activity (Mus musculus): 8%; Activity (MX1 [18]): Active; Activity (MX1 [19]): Active; Activity (MX1 [20]): Active; Activity (HCT-116 [21]): 89%; Activity (MX1 [22]): Active
